Like-named read-outs stand apart in the source and are kept apart here.
Columns and labels:
Assay in all cases: cells
[1] = tested on: HT29 cells; conditions: for CC50: read-out: LC50; for IC (TGI): read-out: TGI
Text: (§1) The aim of this assay is to evaluate the in vitro cytostatic (ability to delay or arrest tumor cell growth) or cytotoxic (ability to kill tumor cells) activity of the samples being tested.
(§2) A colorimetric assay, using sulforhodamine B (SRB) reaction has been adapted to provide a quantitative measurement of cell growth and viability (following the technique described by Skehan et al. J. Natl. Cancer Inst. 1990, 82, 1107-1112). Another colorimetric assay based on 3-(4,5-Dimethylthiazol-2-yl)-2,5-diphenyltetrazolium bromide (MTT) reduction to a purple formazan has been also used to assess the antiproliferative activity (following the technique described by Mosmann et al. J. Immunol. Meth. 1983, 65, 55-63).
(§3) These forms of assays employ 96-well cell culture microplates following the standards of the American National Standards Institute and the Society for Laboratory Automation and Screening (ANSI SLAS 1-2004 (R2012) Oct. 12, 2011. All the cell lines used in this study were obtained from the American Type Culture Collection (ATCC) and derive from different types of human cancer.
(§4) A549, HT29, MDA-MB-231 and PSN1 cells were maintained in Dulbecco's Modified Eagle Medium (DMEM) while PC-3 and 22Rv1 cells were maintained in Roswell Park Memorial Institute Medium (RPMI). All cell lines were supplemented with 10% Fetal Bovine Serum (FBS), 2 mM L-glutamine, 100 U/mL penicillin, and 100 […] at 37° C., 5% CO2 and 98% humidity. For the experiments, cells were harvested from subconfluent cultures using trypsinization and resuspended in fresh medium before counting and plating.
(§5) A549, HT29, MDA-MB-231 and PSN1 cells were seeded in 96 well microtiter plates, at 5000 cells per well in aliquots of 150 μL, and allowed to attach to the plate surface for 18 hours (overnight) in drug free medium. After that, one control (untreated) plate of each cell line was fixed (as described below) and used for time zero reference value. Culture plates were then treated with test compounds (50 μL aliquots of 4× stock solutions in complete culture medium plus 4% DMSO) using ten 2/5 serial dilutions (concentrations ranging from 10 to 0.003 μg/mL) and triplicate cultures (1% final concentration in DMSO). After 72 hours treatment, the antitumor effect was measured by using the SRB methodology: Briefly, cells were washed twice with PBS, fixed for 15 min in 1% glutaraldehyde solution at room temperature, rinsed twice in PBS, and stained in 0.4% SRB solution for 30 min at room temperature. Cells were then rinsed several times with 1% acetic acid solution and air-dried at room temperature.
(§6) Effects on cell growth and survival were estimated by applying the NCI algorithm (Boyd M R and Paull K D. Drug Dev. Res. 1995, 34, 91-104). The values obtained in triplicate cultures were fitted by nonlinear regression to a four-parameters logistic curve by nonlinear regression analysis.

[2] = tested on: PSN1 cells; conditions: Homo sapiens, PSN1, 72 h; for CC50: read-out: LC50; for IC (TGI): read-out: TGI
Text: as §1, §2, §3, §4, §5, §6

[3] = tested on: A549 cells; conditions: for CC50: read-out: LC50; for IC (TGI): read-out: TGI
Text: as §1, §2, §3, §4, §5, §6

[4] = tested on: MDA-MB-231 cells; conditions: for GI50 / CC50 / IC (TGI): Homo sapiens, MDA-MB-231, 72 h; for CC50: read-out: LC50; for IC (TGI): read-out: TGI
Text: as §1, §2, §3, §4, §5, §6

Row | Compound | CC50 ([1]; Homo sapiens, HT-29, 72 h) [nM] | IC (TGI) ([1]; Homo sapiens, HT-29, 72 h) [nM] | CC50 [2] [nM] | IC (TGI) [2] [nM] | CC50 ([3]; Homo sapiens, A549, 72 h) [nM] | other results
1 | COc1c(C)cc2c(c1O)[C@@H]1[C@@H]3[C@@H]4SC[C@]5(N[C@@H](CN)Cc6c5[nH]c5ccccc65)C(=O)OC[C@@H](c5c6c(c(C)c(OC(C)=O)c54)OCO6)N3[C@@H](C#N)[C@H](C2)N1C [Compound 11-R] | > 126 | > 126 | > 126 | 1.89 | > 126 | GI50 ([1]; Homo sapiens, HT-29, 72 h): 1.39 nM; GI50 ([2]; PSN1, 72 hours treatment, SRB): 1.39 nM; GI50 ([3]; Homo sapiens, A549, 72 h): 1.77 nM
2 | COc1c(C)cc2c(c1O)[C@@H]1[C@@H]3[C@@H]4SC[C@]5(N[C@H](C(=O)O)Cc6c5[nH]c5ccccc65)C(=O)OC[C@@H](c5c6c(c(C)c(OC(C)=O)c54)OCO6)N3[C@@H](C#N)[C@H](C2)N1C [Compound 14-S] | > 124 | > 124 | > 124 | > 124 | > 124 | GI50 ([1]; Homo sapiens, HT-29, 72 h): 121 nM; GI50 [4]: 54.5 nM; CC50 [4]: > 124 nM; IC (TGI) [4]: 113 nM; GI50 [2]: > 124 nM; GI50 ([3]; Homo sapiens, A549, 72 h): > 124 nM; IC (TGI) ([3]; Homo sapiens, A549, 72 h): > 124 nM
3 | COc1ccc2oc3c(c2c1)CCN[C@]31CS[C@@H]2c3c(OC(C)=O)c(C)c4c(c3[C@H](COC1=O)N1[C@@H]2[C@H]2c3c(cc(C)c(OC)c3O)C[C@@H]([C@@H]1C#N)N2C)OCO4 [Compound 34] | 125 | 85.5 | > 126 | 59.1 | > 126 | GI50 ([1]; Homo sapiens, HT-29, 72 h): 54.1 nM; GI50 [4]: 45.3 nM; CC50 [4]: 112 nM; IC (TGI) [4]: 76.7 nM; GI50 [2]: 54.1 nM; GI50 ([3]; Homo sapiens, A549, 72 h): 59.1 nM; IC (TGI) ([3]; Homo sapiens, A549, 72 h): 80.5 nM
4 | COc1c(C)cc2c(c1O)[C@@H]1[C@@H]3[C@@H]4SC[C@]5(N[C@@H](C)Cc6c5[nH]c5ccccc65)C(=O)OC[C@@H](c5c6c(c(C)c(OC(C)=O)c54)OCO6)N3[C@@H](C#N)[C@H](C2)N1C [B] | > 129 | 9.13 | 23.1 | 20.6 | > 129 | GI50 ([1]; Homo sapiens, HT-29, 72 h): 8.48 nM; GI50 [4]: 9 nM; CC50 [4]: 34.7 nM; IC (TGI) [4]: 16.7 nM; GI50 [2]: 19.3 nM; GI50 ([3]; Homo sapiens, A549, 72 h): 20.6 nM; IC (TGI) ([3]; Homo sapiens, A549, 72 h): 21.9 nM
5 | C=CCOC(=O)NC[C@H]1Cc2c([nH]c3ccccc23)[C@@]2(CS[C@@H]3c4c(OC(C)=O)c(C)c5c(c4[C@H](COC2=O)N2[C@@H]3[C@H]3c4c(cc(C)c(OC)c4O)C[C@@H]([C@@H]2O)N3C)OCO5)N1 [Compound 13-R] | > 115 |  |  |  | > 115 | 
6 | COc1ccc2[nH]c3c(c2c1)C[C@@H](CN)N[C@]31CS[C@@H]2c3c(OC(C)=O)c(C)c4c(c3[C@H](COC1=O)N1[C@@H]2[C@H]2c3c(cc(C)c(OC)c3O)C[C@@H]([C@@H]1C#N)N2C)OCO4 [Compound 26-S] | > 122 | 3.16 | 3.52 | 3.28 | > 122 | GI50 ([1]; Homo sapiens, HT-29, 72 h): 2.79 nM; GI50 [4]: 1.34 nM; CC50 [4]: 3.89 nM; IC (TGI) [4]: 1.94 nM; GI50 ([2]; PSN1, 72 hours treatment, SRB): 3.04 nM; GI50 ([3]; Homo sapiens, A549, 72 h): 11.2 nM; IC (TGI) ([3]; Homo sapiens, A549, 72 h): 21.9 nM
7 | COc1c(C)cc2c(c1O)[C@@H]1[C@@H]3[C@@H]4SC[C@]5(N[C@@H](CO)Cc6c5[nH]c5ccccc65)C(=O)OC[C@@H](c5c6c(c(C)c(OC(C)=O)c54)OCO6)N3[C@@H](C#N)[C@H](C2)N1C [Compound 3-R] | > 126 | > 126 | > 126 | 0.605 | > 126 | CC50 [4]: 1.25 nM; IC (TGI) [4]: 0.504 nM; GI50 ([2]; PSN1, 72 hours treatment, SRB): 0.39 nM; IC (TGI) ([3]; Homo sapiens, A549, 72 h): 0.579 nM
8 | C=CCOC(=O)NC[C@@H]1Cc2c([nH]c3ccccc23)[C@@]2(CS[C@@H]3c4c(OC(C)=O)c(C)c5c(c4[C@H](COC2=O)N2[C@@H]3[C@H]3c4c(cc(C)c(OC)c4O)C[C@@H]([C@@H]2C#N)N3C)OCO5)N1 [Compound 10-S] | > 1140 |  |  |  |  | 
9 | COc1c(C)cc2c(c1O)[C@@H]1[C@@H]3[C@@H]4SC[C@]5(N[C@@H](CN)Cc6c5oc5ccccc65)C(=O)OC[C@@H](c5c6c(c(C)c(OC(C)=O)c54)OCO6)N3[C@@H](C#N)[C@H](C2)N1C [Compound 46-R] |  |  |  |  |  | TGI ([1]; HT29, 72 hours treatment, SRB): 1.39E−09 Molar; CC50 ([1]; HT29, 72 hours treatment, SRB): > 126 nM; TGI ([4]; MDA-MB-231, 72 hours treatment, SRB): 1.39E−09 Molar; TGI ([3]; A549, 72 hours treatment, SRB): 2.77E−09 Molar; CC50 ([3]; A549, 72 hours treatment, SRB): > 126 nM
10 | C=CCOC(=O)NC[C@H]1Cc2c([nH]c3ccccc23)[C@@]2(CS[C@@H]3c4c(OC(C)=O)c(C)c5c(c4[C@H](COC2=O)N2[C@@H]3[C@H]3c4c(cc(C)c(OC)c4O)C[C@@H]([C@@H]2C#N)N3C)OCO5)N1 [Compound 10-R] | > 114 | > 114 |  |  | > 114 | 
11 | COc1c(C)cc2c(c1O)[C@@H]1[C@@H]3[C@@H]4SC[C@]5(N[C@H](COC(C)=O)Cc6c5[nH]c5ccccc65)C(=O)OC[C@@H](c5c6c(c(C)c(OC(C)=O)c54)OCO6)N3[C@@H](O)[C@H](C2)N1C [Compound 4a-S] | > 121 |  |  |  | > 121 | 
12 | C=CCOC(=O)NC[C@H]1Cc2c(oc3ccccc23)[C@@]2(CS[C@@H]3c4c(OC(C)=O)c(C)c5c(c4[C@H](COC2=O)N2[C@@H]3[C@H]3c4c(cc(C)c(OC)c4O)C[C@@H]([C@@H]2C#N)N3C)OCO5)N1 [Compound 45-R] | > 114 |  |  |  |  | 
13 | COc1c(C)cc2c(c1O)[C@@H]1[C@@H]3[C@@H]4SC[C@]5(N[C@@H](CO)Cc6c5oc5ccccc65)C(=O)OC[C@@H](c5c6c(c(C)c(OC(C)=O)c54)OCO6)N3[C@@H](O)[C@H](C2)N1C [Compound 39-R] | > 127 |  |  |  | > 127 | 
14 | COc1c(C)cc2c(c1O)[C@@H]1[C@@H]3[C@@H]4SC[C@]5(N[C@H](CN)Cc6c5[nH]c5ccccc65)C(=O)OC[C@@H](c5c6c(c(C)c(OC(C)=O)c54)OCO6)N3[C@@H](C#N)[C@H](C2)N1C [Compound 11-S] | > 126 | > 126 |  |  | > 126 | 
15 | C=CCOC(=O)NC[C@@H]1Cc2c([nH]c3ccccc23)[C@@]2(CS[C@@H]3c4c(OC(C)=O)c(C)c5c(c4[C@H](COC2=O)N2[C@@H]3[C@H]3c4c(cc(C)c(OC)c4O)C[C@@H]([C@@H]2O)N3C)OCO5)N1 [Compound 13-S] | > 1150 |  |  |  |  | 
16 | COc1c(C)cc2c(c1O)[C@@H]1[C@@H]3[C@@H]4SC[C@]5(N[C@H](CN)Cc6c5oc5ccccc65)C(=O)OC[C@@H](c5c6c(c(C)c(OC(C)=O)c54)OCO6)N3[C@@H](C#N)[C@H](C2)N1C [Compound 46-S] | > 126 |  |  |  | > 126 | 
17 | C=CCOC(=O)NC[C@@H]1Cc2c(oc3ccccc23)[C@@]2(CS[C@@H]3c4c(OC(C)=O)c(C)c5c(c4[C@H](COC2=O)N2[C@@H]3[C@H]3c4c(cc(C)c(OC)c4O)C[C@@H]([C@@H]2C#N)N3C)OCO5)N1 [Compound 45-S] | > 114 |  |  |  |  | 

— patent publication US10538535B2, “Antitumoral compounds” (priority 2017, dated 2020)
